Assay results taken from patent publication US5932575A, “Cardiac diseases improving agents” (Kureha Chemical Industry Co., Ltd., priority 1997, dated 1999).
“And” between values parts separate entries of the source, which are not always exact repeats. Equal entries are not always repeated.

Tests used:
rats with renal diseases = conditions: J. Pharmacol. Exp. Ther., 267: 657-663, 1993; cited from earlier work
[1] = system: angiotensin converting enzyme (ACE); conditions: cited from earlier work
[2] = system: SHR rats, 3/4NPX cardiac hypertrophy model; experiment: Inhibitory action of myocardial disturbance, Test 1 (3/4NPX cardiac hypertrophy model); format: in vivo
Method: SHR rats were divided into control group and test group each having three animals and both groups were treated with 3/4NPX, an experimental cardiac hypertrophy model prepared by 3/4 partial nephrectomy, after eight weeks. […] After the oral administration,kidneys and heart were excised and their weight was determined.

[3] = system: SHR rats, 3/4 NPX cardiac hypertrophy model; experiment: Inhibitory action of myocardial disturbance, Test 2 (3/4 NPX cardiac hypertrophy model); format: in vivo
Method: Similarly, 3/4 NPX (cardiac hypertrophy model caused by 3/4 partial nephrectomy) was carried out at four weeks point in a control group and test group of SHR rats each having two and three animals. […] After 11 weeks, kidneys and heart were excised and their weight was determined.

ICR mice = experiment: Acute toxicity (oral, single dose); format: in vivo; conditions: 500 mg/kg oral once, 0.5% methylcellulose, after six days
Method: Female 5-week-old ICR mice were divided to groups each having five animals and acclimated for a week. Compound Nos. 1-3, 7, 8, 11 and 13 each was dissolved or dispersed in 0.5% methylcelulose aqueous solution, respectively, and orally administered once at a dose of 500 mg/kg, then the number of dead animals was counted after six days.

[4] = J. Clin. Pharmacol., 30:155-158, 1990
[5] = test group average, 20 mg/kg in drinking water four weeks, after 16 weeks
[6] = test group individual animals 1-3 in order, 20 mg/kg, after 16 weeks, 20 mg/kg
[7] = test group average, 20 mg/kg in drinking water, after 9 weeks
[8] = test group average, 20 mg/kg in drinking water, after 11 weeks
[9] = test group individual animals 1-3 in order, 20 mg/kg, after 9 weeks, 20 mg/kg
[10] = test group individual animals 1-3 in order, 20 mg/kg, after 11 weeks, 20 mg/kg

In the case of `CCCN(Cc1ccc(-c2ccccc2-c2nnn[nH]2)cc1)c1ncccc1C(=O)O` [A-81988, 2-[N-propyl-N-[[2'-(1H-tetrazol-5-yl)biphenyl-4-yl]methyl]amino]-pyridine-3-carboxylic acid], the “hypotension (in words)” value (rats with renal diseases) is given as “accompanied with hypotension” and the “proteinuria (in words)” value (rats with renal diseases) is given as “improvement in proteinuria”.
In the case of `C[C@H](CS)C(=O)N1CCC[C@H]1C(=O)O` [Captopril], the “blood pressure (in words)” value [1, 4] is given as “lower blood pressure” and the “adverse reactions (in words)” value [1] is given as “dry cough or adverse reaction of acute renal failure”.
For `CCCCC(=O)N(Cc1ccc(C(=O)OCCN(C)C)cc1)c1cc(C(=O)N2CCOCC2)ccc1N(C)C` [Compound No. 1, 4-dimethylamino-3-N-[[[4-(2'-dimethylaminoethoxycarbonyl)phenyl]-methyl]valeramido]benzoic acid morpholide], the “cardiac disturbance (in words)” value ([2]; Test 1, 20 mg/kg) was “inhibited cardiac disturbance”, the “heart weight (in words)” value ([2]; Test 1, 20 mg/kg) was “decrease of heart weight due to cardiac hypertrophy” and the “hypotension or kidney disturbance (in words)” value ([2]; Test 1, 20 mg/kg) was “without inducing hypotension or kidney disturbance”. The “kidney weight (in words)” value ([2]; Test 1, 20 mg/kg) was “decreased inhibition of kidney weight increase”, the “BP: blood pressure, average” value [2, 5] was 232 mmHg and the “BUN: blood urea nitrogen, average” value [2, 5] was 58 mg/dL. The “BW: body weight, average” value [2, 5] was 385 g, the “CCr: creatinine clearance, average” value [2, 5] was 0.76 mL/min and the “Cr: blood creatinine, average” value [2, 5] was 1.0 mg/dL. The “HW: heart weight, average” value [2, 5] was 1.493 g, the “KW: kidney weight, average” value [2, 5] was 1.451 g and the “RW: relative weight (heart), average” value [2, 5] was 0.388%. For the same compound, the “RW: relative weight (kidney), average” value [2, 5] was 0.376%, the “U-Pro.: urinary protein, average” value [2, 5] was 114.6 mg/day and the “BP: blood pressure, individual animal” value [2, 6] was 247 mmHg and 221 mmHg and 229 mmHg. The “BUN: blood urea nitrogen, individual animal” value (from here on “BUN … individual animal”) [2, 6] was 55 mg/dL and 50 mg/dL and 70 mg/dL, the “BW: body weight, individual animal” value [2, 6] was 415 g and 346 g and 394 g and the “CCr: creatinine clearance, individual animal” value (“CCr … individual animal” below) [2, 6] was 0.88 mL/min and 0.74 mL/min and 0.66 mL/min. The “Cr: blood creatinine, individual animal” value [2, 6] was 1.0 mg/dL and 0.9 mg/dL and 1.2 mg/dL, the “HW: heart weight, individual animal” value [2, 6] was 1.546 g and 1.326 g and 1.606 g and the “KW: kidney weight, individual animal” value [2, 6] was 1.515 g and 1.269 g and 1.568 g. The “RW: relative weight (heart), individual animal” value [2, 6] was 0.373% and 0.383% and 0.408%, the “RW: relative weight (kidney), individual animal” value [2, 6] was 0.365% and 0.366% and 0.398% and the “U-Pro.: urinary protein, individual animal” value [2, 6] was 119.8 mg/day and 50.5 mg/day and 174.6 mg/day. The “heart weight (in words)” value ([3]; Test 2, 20 mg/kg) was “declined heart weight”, the “myocardial disturbance (in words)” value ([3]; Test 2, 20 mg/kg) was “inhibition of myocardial disturbance” and the “urinary protein (in words)” value ([3]; Test 2, 20 mg/kg) was “significant decrease of urinary protein”. For the same compound, the “BP: blood pressure, average” value [3, 7] was 214 mmHg, the “BUN: blood urea nitrogen, average” value [3, 7] was 44 mg/dL and the “BW: body weight, average” value [3, 7] was 258 g. For the same compound, the “CCr: creatinine clearance, average” value [3, 7] was 0.64 mL/min, the “Cr: blood creatinine, average” value [3, 7] was 0.7 mg/dL and the “U-Pro.: urinary protein, average” value [3, 7] was 43.3 mg/day. The “BP: blood pressure, average” value [3, 8] was 237 mmHg, the “BUN: blood urea nitrogen, average” value [3, 8] was 56 mg/dL and the “BW: body weight, average” value [3, 8] was 286 g. For the same compound, the “CCr: creatinine clearance, average” value [3, 8] was 0.67 mL/min, the “Cr: blood creatinine, average” value [3, 8] was 0.8 mg/dL and the “HW: heart weight, average” value [3, 8] was 1.078 g. For the same compound, the “KW: kidney weight, average” value [3, 8] was 1.350 g, the “RW: relative weight (heart), average” value [3, 8] was 0.378% and the “RW: relative weight (kidney), average” value [3, 8] was 0.473%. For the same compound, the “U-Pro.: urinary protein, average” value [3, 8] was 65.4 mg/day, the “BP: blood pressure, individual animal” value [3, 9] was 205 mmHg and 219 mmHg and 214 mmHg and the “BUN … individual animal” value [3, 9] was 41 mg/dL and 45 mg/dL and 47 mg/dL. For the same compound, the “BW: body weight, individual animal” value [3, 9] was 263 g and 254 g and 256 g, the “CCr … individual animal” value [3, 9] was 0.83 mL/min and 0.51 mL/min and 0.58 mL/min and the “Cr: blood creatinine, individual animal” value [3, 9] was 0.6 mg/dL and 0.8 mg/dL. The “U-Pro.: urinary protein, individual animal” value [3, 9] was 38.7 mg/day and 41.5 mg/day and 49.8 mg/day, the “BP: blood pressure, individual animal” value [3, 10] was 217 mmHg and 259 mmHg and 234 mmHg and the “BUN … individual animal” value [3, 10] was 44 mg/dL and 50 mg/dL and 58 mg/dL. The “BW: body weight, individual animal” value [3, 10] was 299 g and 271 g and 287 g, the “CCr … individual animal” value [3, 10] was 0.79 mL/min and 0.55 mL/min and 0.67 mL/min and the “Cr: blood creatinine, individual animal” value [3, 10] was 0.7 mg/dL and 0.8 mg/dL and 1.0 mg/dL. For the same compound, the “HW: heart weight, individual animal” value [3, 10] was 1.113 g and 1.018 g and 1.106 g, the “KW: kidney weight, individual animal” value [3, 10] was 1.364 g and 1.319 g and 1.368 g and the “RW: relative weight (heart), individual animal” value [3, 10] was 0.372% and 0.376% and 0.385%. For the same compound, the “RW: relative weight (kidney), individual animal” value [3, 10] was 0.456% and 0.487% and 0.477% and the “U-Pro.: urinary protein, individual animal” value [3, 10] was 46.9 mg/day and 40.5 mg/day and 108.7 mg/day.
With `CCCCC(=O)N(Cc1ccc(C(=O)O)cc1)c1cc(C(=O)N2CCOCC2)ccc1N(C)C` [Compound No. 7, 3-N-[[(4-Carboxyphenyl)methy)valeramido]-4-dimethylaminobenzoic acid morpholide] the “number of dead animals” value (ICR mice) was “No dead animals was found”.
With `CCCCC(=O)N(Cc1ccc(C(=O)O)cc1)c1cc(C(=O)N2CCOCC2)ccc1C` [Compound No. 8, 4-Methyl-3-N-[[4-(carboxyphenyl)methyl]valeramido]benzoic acid morpholide] the “number of dead animals” value (ICR mice) was “No dead animals was found”.
For `CCCCC(=O)N(Cc1ccc(-c2ccccc2-c2nn[nH]n2)cc1)c1cc(C(=O)N2CCOCC2)ccc1N(C)C` [Compound No. 11], the “number of dead animals” value (ICR mice) was “No dead animals was found”.
In the case of `CCCCC(=O)N(Cc1ccc(-c2nn[nH]n2)cc1)c1cc(C(=O)N2CCOCC2)ccc1N(C)C` [Compound No. 13, 4-Dimethylamino-3-N-[[4-(1H-tetrazol-5-yl)phenylmethyl]valeramido]benzoic acid morpholide], the “number of dead animals” value (ICR mice) is reported as “No dead animals was found”.
In the case of `CCOC(=O)[C@H](CCc1ccccc1)N[C@@H](C)C(=O)N1CCC[C@H]1C(=O)O` [Enalapril], the “blood pressure (in words)” value [1, 4] is given as “lower blood pressure”, the “renal dysfunction (in words)” value [1, 4] is given as “improve the progress of renal dysfunction” and the “adverse reactions (in words)” value [1] is given as “dry cough or adverse reaction of acute renal failure”.
